# According to patent publication US20210154281A1, “CELL-BASED CANCER VACCINES AND CANCER THERAPIES” (Massachusetts Institute of Technology, priority 2019, published 2021):
# Tests used:
# [1] = tested on: B16-Ova tumors; assay: Circulating H2-Kb/[…]-tetramer positive CD8+ T-cells in mice bearing B16-Ova tumors; assay type: in vivo, C57BL/6J WT mice; conditions: bled after the second intra-tumoral dose
# Method: Briefly, 50 μl of whole blood was collected by retro-orbital bleeding, centrifuged at 250×g for 5 min, followed by 3 rounds of RBC lysis in 200 ul of ACK buffer. Cells were then washed once in Tetramer stain buffer (PBS containing 5 mM EDTA, 1% BSA and 50 nM Dasatinib), and stained with PE-conjugated Tetramer for 40 min at RT, followed by co-staining with anti-CD8 for 10 min at 4° C. Cells were then stained with DAPI, washed and re-suspended in tetramer stain buffer for flow cytometry analysis.
# [2] = tested on: B16-Ova tumors; assay: Flank B16-Ova tumors in mice: tumor size, survival, re-challenge; assay type: in vivo, C57BL/6J WT mice; conditions: intratumoral injection alone, three weekly doses
# Method: Cross-sectional area of tumors was measured in mm^2 using calipers every 2-3 days. In tumor re-challenge experiments, naive mice controls or mice who had complete tumor regression and remained tumor free for at least 60 days were subcutaneously injected in the left flank (contra-lateral to the initial tumor) with 0.1×10^6 B16-Ova cells, and tumor development was monitored for another 60 days.
# [3] = tested on: BMDCs; assay: Viability of BMDCs upon exposure to etoposide
# [4] = tested on: B16-Ova tumors; assay: Immunophenotyping of intra-tumoral DC by flow cytometry; assay type: in vivo, mice; conditions: combined with checkpoint blockade; after 2 doses of vaccine or etoposide and 3 doses of checkpoint blockade
# Method: Phenotypic characterization of immune cell populations was performed by flow cytometry. Briefly, tumors were harvested and mashed through a […] filter. Collected cells were washed in FACS buffer (PBS containing 5 mM EDTA and 1% BSA), resuspended, and counted. Five million cells from each sample were stained with fluorophore-conjugated antibodies on ice for 30 min, co-stained with Aqua, washed, resuspended in 450 μl, supplemented with 50 μl of CountBright absolute counting beads, and analyzed on a BD LSR Fortessa flow cytometer. DCs were scored as CD45+Ly6CCD24+MHCII+F480−(CD11b+ or CD103+) cells using the gating strategy described in Broz M L, et al., Cancer Cell, 8; 26(6):938 (2014).
# To test whether the efficacy of the tumor cell vaccine and checkpoint combination treatment for an anti-tumor immune response depends on DCs that can cross-present tumor antigens, the numbers of CD11b^+C103^−DC2 cells and CD11b^−CD103^+DC1 cells were enumerated by immunophenotyping and flow cytometry. […] As before, mice bearing flank B16-Ova tumors were treated with saline or the tumor cell vaccine intra-tumorally, in the presence or absence of systemic checkpoint blockade (FIG. 5A), and analyzed. […]
# [5] = tested on: B16-Ova cells; assay: ATP levels in cell-free culture media by CellTiter-Glo; assay type: cell-based, mouse; conditions: for ATP (nM) MEAN: culture media 24-48 hours after treatment
# Method: For measurement of ATP levels, cell-free culture media obtained as above was analyzed by CellTiter-Glo according to the manufacturer's protocol. Values were converted to ATP concentrations using a standard curve generated using pure ATP.
# [6] = tested on: B16-Ova cells; assay: Calreticulin surface exposure by flow cytometry; conditions: for CALR (%): 24 hours after treatment, representative experiment; for level of externalized calreticulin: 24 hours of drug exposure
SMILES,H2-Kb-SIINFEKL (SEQ ID NO: 1)-specific T-cells (%) MEAN [1] [%],tumor growth [2],viability of BMDCs [3],number of CD103+DC1 in tumors [4],ATP (nM) MEAN ([5]; 10 uM) [nM],ATP (nM) MEAN ([5]; 50 uM) [nM],CALR (%) ([6]; 10 uM),CALR (%) ([6]; 50 uM),level of externalized calreticulin [6],ATP release ([5]; after 24 hours of treatment)
"COc1cc([C@@H]2c3cc4c(cc3[C@@H](O[C@@H]3O[C@@H]5CO[C@@H](C)O[C@H]5[C@H](O)[C@H]3O)[C@H]3COC(=O)[C@H]23)OCO4)cc(OC)c1O [Etop, etoposide]",0.29,no effect on tumor growth,significantly reduced,did not enhance numbers of CD103+DC1,2.05,1.35,9.69,9.69,intermediate levels of calreticulin exposure,–
"O=C1c2c(O)ccc(O)c2C(=O)c2c(NCCNCCO)ccc(NCCNCCO)c21 [Mito, mitoxantrone]",–,–,–,–,1.02,1.80,17.10,4.15,highest level of externalized calreticulin,Substantial ATP release
